Some test systems named below: U-251; HCC 2998; SNB-19; ACHN; NCI-H226; HOP-92; KM12; EKVX; CCRF-CEM; OVCAR-3; SR; NCI-H522; HL-60; OVCAR-4; HCT-116; UACC-62; COLO 205; RPMI-8226.
Common to all, as to experiment: NCI-60 cell line screen, 48 h

Consider twelve compounds from ChEMBL document CHEMBL1201862, “PubChem BioAssay data set” (2004).

SMILES strings stand for the structures.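 Following 48 hours of exposure in 96-well plates, responses at five concentrations were used to interpolate endpoints linearly. Here, GI50 denotes the concentration required for 50% inhibition of growth.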 The source made the active and inactive calls. No stated cut-off is given here; in the data, active = GI50 up to about 1.1 µM and inactive = higher.

Take `CC(C)(C)c1cc2c3c(c1)c(=O)c1cccc4c(O)c5cccc(c2=O)c5c-3c41`: the GI50 with U-251 was 57.7 µM (inactive); in the assay on HCC 2998, 0.0105 µM (active); with SNB-19 it was > 100 µM (inactive); in the assay with ACHN it was > 100 µM (inactive); in the assay with NCI-H226 it was > 100 µM (inactive); with HOP-92 it was 36.6 µM (inactive). The GI50 is 38.1 µM (inactive) in the assay on KM12; > 100 µM (inactive) in the assay on EKVX; 45.1 µM (inactive) with CCRF-CEM; 40.4 µM (inactive) in the assay with OVCAR-3; 15.3 µM (inactive) in the assay with SR; > 100 µM (inactive) in the assay with NCI-H522. Besides, the GI50 in the assay with HL-60 is 58.5 µM (inactive); in the assay with OVCAR-4 it was > 100 µM (inactive); in the assay on HCT-116, 59.7 µM (inactive); in the assay with UACC-62, > 100 µM (inactive); in the assay on COLO 205, > 100 µM (inactive).

As for `CC(=O)OCC1OC(n2ccc(=O)[nH]c2=O)C(OC(C)=O)C(OC(C)=O)C1OC(C)=O` (configuration not stated), the GI50 is > 100 µM (inactive) with U-251; > 100 µM (inactive) with HCC 2998; > 100 µM (inactive) with SNB-19; > 100 µM (inactive) in the assay with ACHN; 9.16 µM (inactive) in the assay with NCI-H226; > 100 µM (inactive) with HOP-92. Besides, the GI50 with KM12, with EKVX, in the assay on CCRF-CEM, with OVCAR-3, with SR and with NCI-H522 was > 100 µM (inactive) in each case. For the same compound, the GI50 in the assay on HL-60 is > 10 µM (inactive); in the assay on OVCAR-4, > 100 µM (inactive); in the assay with HCT-116, > 100 µM (inactive); in the assay on UACC-62 it was > 100 µM (inactive); in the assay with RPMI-8226, > 100 µM (inactive); in the assay with COLO 205, > 100 µM (inactive).

For the compound `CCOc1ccc(NC(=O)CC2C(=O)Nc3ccccc3S2(=O)=O)cc1` (configuration not stated), the GI50 was 33.2 µM (inactive) with U-251; > 100 µM (inactive) in the assay on HCC 2998; 34.5 µM (inactive) in the assay with SNB-19; > 100 µM (inactive) in the assay on ACHN; 34.3 µM (inactive) in the assay with NCI-H226; 13.3 µM (inactive) in the assay on HOP-92. In addition, the GI50 in the assay with KM12 was > 100 µM (inactive); with EKVX, > 100 µM (inactive); with OVCAR-3 it was 77.1 µM (inactive); in the assay on SR, > 100 µM (inactive); with NCI-H522, > 100 µM (inactive); with HL-60, > 100 µM (inactive). Also, the GI50 in the assay with OVCAR-4, in the assay with HCT-116, with RPMI-8226 and with COLO 205 was > 100 µM (inactive) each time.

With `COc1c(C)c(O)c2c(c1C)OC(c1ccccc1)CC2=O` (configuration not stated), the GI50 in the assay with U-251 is 67.9 µM (inactive); in the assay with HCC 2998, 56.1 µM (inactive); in the assay on ACHN it was 51.9 µM (inactive); in the assay with NCI-H226 it was 38.9 µM (inactive); in the assay with HOP-92, 29.6 µM (inactive); in the assay on KM12, 52.6 µM (inactive). For the same compound, the GI50 with EKVX was 65.2 µM (inactive); in the assay with CCRF-CEM, 31.4 µM (inactive); with OVCAR-3, > 100 µM (inactive); in the assay with SR it was 23.5 µM (inactive); in the assay with NCI-H522 it was 45.9 µM (inactive); in the assay on HL-60, 28.3 µM (inactive). Moreover, the GI50 is 67.9 µM (inactive) in the assay on OVCAR-4, 47.8 µM (inactive) with HCT-116, 53 µM (inactive) in the assay on UACC-62 and 36.1 µM (inactive) in the assay on RPMI-8226.

Consider `COc1cccc(/C(Cl)=C(\C=O)c2cccc(OC)c2)c1`, for which the GI50 was 10.1 µM (inactive) with U-251; 13.2 µM (inactive) with HCC 2998; 11.3 µM (inactive) in the assay on SNB-19; 6.9 µM (inactive) in the assay with ACHN; 11 µM (inactive) in the assay with NCI-H226; 12.4 µM (inactive) in the assay on HOP-92. The GI50 with KM12 was 12.8 µM (inactive); in the assay with EKVX it was 14.9 µM (inactive); in the assay with CCRF-CEM, 3.97 µM (inactive); in the assay with OVCAR-3 it was 15.4 µM (inactive); in the assay with SR, 5.35 µM (inactive); with NCI-H522, 2.68 µM (inactive). The GI50 in the assay with HL-60 was 2.69 µM (inactive); in the assay on OVCAR-4 it was 13.8 µM (inactive); with HCT-116 it was 3.28 µM (inactive); in the assay with UACC-62, 4.43 µM (inactive); with RPMI-8226, 4.62 µM (inactive); with COLO 205 it was 11.9 µM (inactive).

For the compound `FC(F)(F)c1nc(-c2ccccc2)oc1Sc1nnc(Sc2oc(-c3ccccc3)nc2C(F)(F)F)s1`, the GI50 in the assay with U-251 was > 42.5 µM (inactive); with HCC 2998, > 78.2 µM (inactive); in the assay on SNB-19, > 63.5 µM (inactive); with ACHN, > 82.2 µM (inactive); in the assay with HOP-92 it was 29.4 µM (inactive); in the assay with KM12, > 100 µM (inactive). In addition, the GI50 in the assay on EKVX was > 47.2 µM (inactive); in the assay on CCRF-CEM, 8.97 µM (inactive); in the assay on OVCAR-3, > 43.4 µM (inactive); in the assay with SR, 18.5 µM (inactive); in the assay with NCI-H522, 18.5 µM (inactive); in the assay on HL-60, 14.2 µM (inactive). Also, the GI50 was 14.7 µM (inactive) with OVCAR-4; > 65.3 µM (inactive) in the assay on HCT-116; 35.2 µM (inactive) in the assay on UACC-62; 30.5 µM (inactive) in the assay with RPMI-8226; 41.1 µM (inactive) in the assay on COLO 205.

For the compound `CC1=C2CCCC2C/C(=N/Nc2ccc([N+](=O)[O-])cc2[N+](=O)[O-])CC1` (configuration not stated), the GI50 in the assay with U-251, with HCC 2998, in the assay on SNB-19, in the assay on ACHN, in the assay with NCI-H226 and in the assay on HOP-92 was > 100 µM (inactive) in each case. The GI50 in the assay on KM12 is > 100 µM (inactive); in the assay on OVCAR-3 it was > 100 µM (inactive); in the assay with SR, > 100 µM (inactive); in the assay with NCI-H522, > 100 µM (inactive); in the assay with HL-60, 11.1 µM (inactive); in the assay on OVCAR-4, > 100 µM (inactive). Moreover, the GI50 in the assay with HCT-116, with UACC-62, in the assay on RPMI-8226 and with COLO 205 was > 100 µM (inactive) each time.

In the case of `NNC(=O)C(=O)NN=C(C(Cl)(Cl)CO)C(Cl)(Cl)CO`, the GI50 in the assay on U-251 was 19.5 µM (inactive); with HCC 2998, 31 µM (inactive); in the assay with SNB-19, 48.1 µM (inactive); with ACHN it was 31.3 µM (inactive); with NCI-H226, > 100 µM (inactive); in the assay with HOP-92 it was 33.4 µM (inactive). Also, the GI50 with KM12 is 44.1 µM (inactive); with EKVX, 40.7 µM (inactive); in the assay with CCRF-CEM, 19.1 µM (inactive); with OVCAR-3 it was 25.6 µM (inactive); in the assay with SR, 18.6 µM (inactive); in the assay on NCI-H522, 12.1 µM (inactive). The GI50 is 22.1 µM (inactive) in the assay with HL-60; > 100 µM (inactive) in the assay with OVCAR-4; 20.6 µM (inactive) in the assay with HCT-116; 65.5 µM (inactive) in the assay on UACC-62; 27.4 µM (inactive) with RPMI-8226; > 100 µM (inactive) in the assay with COLO 205.

Consider `[N-]=[N+]=Nc1ccc(S(=O)(=O)Oc2cc(OS(=O)(=O)c3ccc(N=[N+]=[N-])cc3)cc(OS(=O)(=O)c3ccc(N=[N+]=[N-])cc3)c2)cc1`, for which the GI50 was > 100 µM (inactive) in the assay on U-251; > 100 µM (inactive) in the assay on HCC 2998; > 10 µM (inactive) in the assay with SNB-19; > 10 µM (inactive) in the assay with ACHN; > 10 µM (inactive) with NCI-H226; > 100 µM (inactive) in the assay with HOP-92. For the same compound, the GI50 in the assay with KM12, with EKVX, in the assay on CCRF-CEM, in the assay on OVCAR-3, in the assay with SR and with NCI-H522 was > 100 µM (inactive) throughout. Moreover, the GI50 with OVCAR-4 was > 10 µM (inactive); with HCT-116, > 100 µM (inactive); with UACC-62, > 100 µM (inactive); in the assay with RPMI-8226, > 100 µM (inactive); in the assay with COLO 205, > 10 µM (inactive).

As for `O=c1/c(=C/c2ccccc2[N+](=O)[O-])sc2nnc(-c3ccco3)n12`, the GI50 with U-251 was 21.2 µM (inactive); in the assay on HCC 2998, 22.4 µM (inactive); with SNB-19, 22.4 µM (inactive); in the assay with ACHN, 52.5 µM (inactive); in the assay with NCI-H226, 23 µM (inactive); in the assay on HOP-92, > 100 µM (inactive). Moreover, the GI50 is 17.6 µM (inactive) in the assay on KM12; 36.2 µM (inactive) in the assay with EKVX; 23.1 µM (inactive) in the assay with CCRF-CEM; 17.7 µM (inactive) with OVCAR-3; 32.3 µM (inactive) in the assay on SR; 18.2 µM (inactive) in the assay on NCI-H522. Moreover, the GI50 in the assay with HL-60 is 24.8 µM (inactive); with OVCAR-4, 22.4 µM (inactive); with HCT-116, 26.9 µM (inactive); with UACC-62, 25.8 µM (inactive); in the assay with COLO 205 it was 30.4 µM (inactive).

With `Cc1ccc2c(c1)NC(=O)C(N=[N+]=[N-])(c1ccccc1)C2=O` (configuration not stated), the GI50 in the assay on U-251 was 25.8 µM (inactive); with HCC 2998 it was > 100 µM (inactive); in the assay on SNB-19, 30.6 µM (inactive); in the assay on ACHN it was 41.1 µM (inactive); with HOP-92, 24.5 µM (inactive); in the assay on KM12, 15.2 µM (inactive). In addition, the GI50 in the assay with EKVX was 30.3 µM (inactive); in the assay on CCRF-CEM, 28.4 µM (inactive); in the assay on OVCAR-3 it was 18.9 µM (inactive); with SR, 20.7 µM (inactive); in the assay on NCI-H522, 20.8 µM (inactive); in the assay on HL-60, 16.4 µM (inactive). The GI50 is 44.2 µM (inactive) with OVCAR-4, 35.2 µM (inactive) in the assay with HCT-116, 22.2 µM (inactive) in the assay with UACC-62 and 14.1 µM (inactive) with COLO 205.

For `COc1nc(C(=O)O)c(Cl)c(OC)c1Cl`, the GI50 in the assay on HCC 2998, in the assay with SNB-19, with ACHN, in the assay on HOP-92, in the assay with KM12 and with EKVX was > 100 µM (inactive) throughout. Moreover, the GI50 in the assay on CCRF-CEM, in the assay with OVCAR-3, in the assay with SR, in the assay with NCI-H522, in the assay with HL-60 and with OVCAR-4 was > 100 µM (inactive) in each case. For the same compound, the GI50 in the assay on HCT-116, with UACC-62, in the assay with RPMI-8226 and with COLO 205 was > 100 µM (inactive) throughout.
